Source: US12640054B2, “Computational in silico model for placental barrier” (CFD Research Corporation, priority 2022, dated 2026)
Counter-ions that a name gives are not always drawn.

Experiments:
[1] = system: intervillous space - trophoblast barrier; assay: Morphological effects of toxic exposure in the in vitro placenta device; type: cell-based; details: injected into the maternal channel at 3 μL/min for 4 min, incubated at 37° C. for 15 min; FIG. 10
Source text: In some embodiments, the in vitro placental model device can be used for studying toxicity of test agents to the placenta. Certain compounds not only induce fetal toxicity upon crossing the placental barrier, but also disrupt the barrier itself. The microfluidic placental barrier model can be used to study response to toxic exposure of test agents. The impact to barrier function can be assessed through permeability comparisons and toxicity (e.g., cytotoxicity, etc.) can be assessed off chip by various methods (e.g., cell lysate luminescence assay, genomic analysis, etc.).
For example, an in vitro placenta device was exposed to trypan blue by injection into the maternal channel at 3 μL/min for 4 min and then incubated at 37° C. for 15 min, similar to protocols in literature^7,8. […] White arrows show barrier degradation, and dark arrows show apoptosis following trypan blue exposure.

trophoblast channel = assay: Cytotoxicity by adenylate kinase release (luminescence); type: cell-based; details: samples from the trophoblast channel; FIG. 11
Experimental: Following exposure, FSS was injected into the maternal channel and permeability assayed. Permeability in the devices was 10-fold higher in trypan blue treated devices compared to controls. An additional assay was performed to determine cytotoxicity as it relates to the release of adenylate kinase. A positive control (100% death by lysis buffer) and a negative control (media only) were included for comparison. Samples were taken from the trophoblast channel and placed in a low volume, white walled […] plate for luminescence analysis using a plate reader. […] The increase in AK release in arbitrary luminescence units compares the toxic exposure of trypan blue to positive and negative controls.

[2] = system: in vitro placenta device (coculture of Bewo trophoblasts and HUVEC); assay: Maternal-placental size exclusion (permeability index) in the in vitro placenta device; type: in vitro ADME, human; details: injected into the maternal vascular channel at 0.1 μL/min for 1 hour; FIG. 9B
Experimental: Again, devices can be placed in the incubator.
In another example, one embodiment of the present invention was used to evaluate maternal-placental size exclusion, where a fluorescein sodium salt (FSS) solution was injected into the maternal vascular channel at 0.1 μL/min for 1 hour. […] PI was expected to decrease as a function of compound molecular weight.

increase in average PI compared to 4 kD TRITC-dextran [2] [fold] | Compound | morphological effects of exposure [1] | increase in adenylate kinase release (trophoblast channel) [fold]
– | Cc1cc(-c2ccc(/N=N/c3c(S(=O)(=O)O)cc4cc(S(=O)(=O)O)cc(N)c4c3O)c(C)c2)ccc1/N=N/c1c(S(=O)(=O)O)cc2cc(S(=O)(=O)O)cc(N)c2c1O [trypan blue] | barrier degradation (e.g., cell death and detachment) and apoptosis | 1.5
~2 | O=C1OC2(c3ccc(O)cc3Oc3cc(O)ccc32)c2ccccc21 [FSS, fluorescein sodium salt] | – | –
